Data: patent US20080221205A1, “FURAN DERIVATIVES FOR PREVENTING AND CURING OSTEOPOROSIS AND PHARMACEUTICAL COMPOSITIONS CONTAINING THE SAME” (priority 2002, published 2008)
Entries after “also recorded” stand apart in the source; their conditions may differ.

How the values were obtained:
osteoclast formation = experiment: Inhibition rate of furan derivatives versus osteoclast formation (TRAP staining); assay type: cell-based, mice; settings: TRAP-positive multinucleated cells, untreated control set as 100%
Outline: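 Non-adherent mouse bone-marrow osteoclast precursors cultured 8 days with 20 ng/ml M-CSF and 30 ng/ml RANKL in presence of compound. TRAP-positive cells with ≥3 nuclei counted; inhibition expressed relative to untreated control set at 100%.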

[1] = tested on: ovariectomized white mice; experiment: Bone mineral densitometer test, preventive effect on osteoporosis; assay type: in vivo; settings: for Change in BMD, %: test group, oral 10 mg per mouse after ovariectomy
Description: After ovariectomy, female white mice weighing about 250 g were orally administered with 10 mg of the Compound 1 per mice for four weeks. Bone mineral density (BMD) was measured before the ovariectomy and every week during the administration of the Compound 1, using a bone mineral densitometer, XCT 540 Research SA made in Germany.
After anesthetizing the mice being bred in cages by intraperitoneal injection of a mixture of Ketamine HCl (ketara 10 mg/kg) and 2% xylazine HCl (Roupun 0.15 ml/kg), BMD measurement was made at a voxel size of 0.1×0.1 mm^2 and threshold values of 280 mg/cm^2 for cancellous bone and 500 mg/cm^2 for compact bone. The analysis sites at the proximal tibias were determined by Scout scans (10 mm/sec), and BMD was measured at three slices at the determined sites by CT scans (7 mm/sec). BMD measurement was performed twice or more at the same site every week during four weeks.

[2] = tested on: ovariectomized white mice; experiment: Preventive effect 1 on osteoporosis: tibia histology, oral administration after ovariectomy; assay type: in vivo; settings: 10 mg/day, four weeks from ovariectomy, versus untreated control
Description: In order to evaluate effects of the compound of the present invention on treatment and prevention of osteoporosis, female white mice with osteoporosis induced by ovariectomy were used as a disease model. After ovariectomy, mice were administered with the compound of the present invention. Tibias were dissected from the mice, and observed histologically.
After anesthetizing female white mice with 100 mg/kg of Ketamine (Ketara) and 0.15 ml/kg of 2% Xylazine (Rompun), the lumbar dorsum is shaved bilaterally and the exposed skin was prepared for aseptic surgery by a 10% povidone-iodine scrub followed by a 70% alcohol wipe.
A 1-cm incision was made in the central region of the abdomen, and the ovary was identified along with the uterus with caution not to damage the main organs such as the liver and diaphragm. After ligating the uterus with a thread for suturing, the exposed ovary was severed toward both sides and removed. Thereafter, each organ was relocated to its original position, and the incision was closed with a thread for suturing in an interrupted pattern. […]
The daily dosage of the Compound 1 per female white mouse was determined based on 250 g body weight. […] With caution not to exchange the water bottles between the groups, everyday, the number of mice was recorded, and the mixture was prepared based on the number of mice. […]

Question: Which results are given for `O=Cc1ccc(CO)o1` [Compound 1, 5-hydroxymethylfuran-2-carboxyaldehyde]?
Answer: Inhibition rate against osteoclast formation, % (osteoclast formation; 0.1 μM): 0%; Inhibition rate against osteoclast formation, % (osteoclast formation; 1 μM): 0%; Inhibition rate against osteoclast formation, % (osteoclast formation; 10 μM): 30%; Change in BMD, % ([1]; Week 1, control −7.5): −2.5%; Change in BMD, % ([1]; Week 2, control −11.6): −3.2%; Change in BMD, % ([1]; Week 3, control −14.9): −1.8%; Change in BMD, % ([1]; Week 4, control −18.6): 3.7%; BMD compared to that before ovariectomy (in words) ([1]; oral 10 mg/day for four weeks after ovariectomy): increase in BMD; also recorded: remarkably increased bone mineral density (BMD); Trabecular and cortical bone of tibia, light microscopy [2]: trabecular bone loss was not observed; also recorded: marked increase in the cortical and trabecualr bone; also recorded: no trabecular bone loss
